Assay [1] relates to O-GlcNAcylated c-myc in MCF-7 cells. Description: Western blot of O-GlcNAcylated c-myc levels in MCF-7 cells. The format is cell-based. To be noted: for O-GlcNAcylated c-myc level: MCF-7, 4 hr. As for the experimental part:
MCF-7 breast cancer cells were treated for 24 hr with 1% DMSO, with an O-GlcNAcase inhibitor, streptozotocin (STZ), with N6-methyladenosine 5′-monophosphate (an O-GlcNAcase inhibitor discovered through by screening with the pseudofluorescent substrate 4-methylumbelliferol (4-MU)-GlcNAc (7)) or with media (control) (FIG. 5).
(§1) O-GlcNAcase inhibitors, which increased O-GlcNAcylation levels of proteins by preventing cleavage of an O-GlcNAc moiety of Ser or Thr residues, were identified using the antibodies of the present invention. MCF-7 breast cancer cells (FIG. 6. Panel A, Lanes 1-4) and MCF10A normal breast cells (FIG. 6. Panel A, Lanes 5-8) were treated for 4 hr with 1% DMSO (FIG. 6, Panel A, Lanes 1 and 5), the O-GlcNAcase inhibitors acetazolamide (FIG. 6, Panel A, Lanes 2 and 6) and N6-methyladenosine 5′-monophosphate (FIG. 6, Panel A, Lanes […] and 7) or media (control) (FIG. 6, Panel A, Lanes 4 and 8). Western blot analysis (8-16% gel) was carried out with cell lysates (20 μg/lane) using antibodies for O-GlcNAcylated c-myc (Peptide #1-G, 5,000-fold diluted).
(§2) Western blot analysis was carried out with 10% gel electrophoresis using nuclear lysates obtained from MCF-7 cells with antibodies for O-GlcNAcylated c-myc (Peptide #2-0). […] There was no increase in unmodified c-myc protein after ketoconazole treatment as verified with antibodies for unmodified c-myc (Peptide #2-N) by Western blot analysis.
MCF-7 cells were treated for 4 hr with 1% DMSO (negative control) or 2 mM ketoconazole in DMSO and an O-GlcNAcylated c-myc band was detected using a second antibody for O-GlcNAcylated c-myc (Peptide #1-G).
(In general: A western blot detects proteins with antibodies after separation by electrophoresis.)

The subject of assay [2] is O-GlcNAcylated c-myc in MCF10A cells. In words: Western blot of O-GlcNAcylated c-myc levels in MCF10A cells. To be noted: 4 hr treatment, cell lysates, FIG. 6A. The format is cell-based. On the procedure: as §1
In assay [3] the test system is O-GlcNAcylated p53 in MCF-7 cells. In words: Western blot of O-GlcNAcylated p53 levels in MCF-7 cells. It counts as cell-based. To be noted: MCF-7, 24 hr, 2 mM, cytosol-containing supernatants, FIG. 7B. As for the experimental part:
MCF-7 cells were grown for 24 hr with treatment of 1% DMSO (negative control) or 2 mM STZ or acetazolamide dissolved in DMSO or 2 mM N6-methyladenosine 5′-monophosphate dissolved in media. The cells were harvested and cytosol-containing supernatants were obtained.

Assay [4] concerns unmodified c-myc in MCF-7 cells. In words: Western blot of unmodified c-myc in MCF-7 cells. It counts as cell-based. To be noted: MCF-7, 4 hr, 2 mM, antibody Peptide #2-N. As for the experimental part:
as §2

A further assay concerns MCF-7 and MCF10A cells. In words: Lactate dehydrogenase (LDH) cytotoxicity assay. It counts as cell-based. To be noted: 2 mM, 4 hr, LDH release. As for the experimental part: Increased O-GlcNAcylated c-myc levels in MCF-7 cells induced cell death. MCF-7 tumor cell death after 2 mM ketoconazole treatment was compared with MCF10A normal cell death by LDH cytotoxicity assay. After treatment of cells for 4 hr, extracellular media and Triton X-100 solubilized cells were obtained and oxidation of NADH to NAD+ in both fractions was monitored for 2 min at a 340 nm to obtain total (media+cells) LDH release.

Assay [5] concerns HT29 colon cancer cells. In words: Cell proliferation assay (MTT). The format is cell-based, human. From the text:
(§3) […] The cell number was counted after staining the cells with 3-(4,5-dimethylthiazol-2-yl)2,5-diphenyl-tetrazolium bromide (MTT).

The subject of assay [6] is SW480 colon cancer cells. Description: Cell proliferation assay (MTT). It counts as cell-based, human.
Description: as §3

For a further assay, the system named is A549 lung cancer cells. In words: Cell proliferation assay (MTT). To be noted: Homo sapiens, A549, 50 μM for 72 hr. The format is cell-based. As for the experimental part: (§4) Cell proliferation assays were carried out after seeding 3,000-5,000 cells in a 96-well plate with and without treatment of 50 μM ketoconazole dissolved in DMSO (final concentration, 1%) for 72 hr (FIG. 8, Panel A). The cell number was counted after staining the cells with 3-(4,5-dimethylthiazol-2-yl)2,5-diphenyl-tetrazolium bromide (MTT).

The next assay concerns H1437 lung cancer cells. In words: Cell proliferation assay (MTT). The format is cell-based. To be noted: Homo sapiens, NCI-H1437, H1437, 50 μM for 72 hr. On the procedure: as §4
Assay [7] deals with Mia Paca-2 pancreatic cancer cells. In words: Cell proliferation assay (MTT). It counts as cell-based. To be noted: Homo sapiens, Mia Paca-2, 50 μM for 72 hr. On the procedure: as §4
A further assay relates to PANC1 cells. In words: Cell proliferation assay (MTT). It counts as cell-based. To be noted: PANC1, same treatments, 72 hr. As for the experimental part: as §4
Assay [8] relates to MCF-7 breast cancer cells. Description: Cell proliferation. It counts as cell-based. On the procedure:
as §4

For assay [9], the system named is HT29 colon cancer cells. Description: QCM ECMatrix cell invasion assay. It counts as cell-based, human. To be noted: HT29, 100 μM, 72 hr. As for the experimental part: (§5) Cell invasiveness of SW480 and HT29 human colon adenocarcinoma cells and MCF10CA1A breast cancer cells with and without 72 hr treatment with 100 μM ketoconazole was studied in 24-well plates using the QCM ECMatrix cell invasion assay kit (EMD Millipore).

Assay [10] concerns SW480 colon cancer cells. Description: QCM ECMatrix cell invasion assay. To be noted: SW480, 100 μM, 72 hr. The format is cell-based, human. On the procedure:
as §5

Assay [11] relates to MCF10CA1A breast cancer cells. Description: QCM ECMatrix cell invasion assay. It counts as cell-based. To be noted: 100 μM, 72 hr. On the procedure:
as §5

Assay [12] concerns Mia Paca-2 pancreatic cancer cells. Description: Wound healing assay (cell migration). The format is cell-based. To be noted: Mia Paca-2, 100 μM. As for the experimental part: (§6) Wound healing assays were also carried out to verify inhibition of cell migration after ketoconazole treatment.
The subject of assay [13] is PANC1 pancreatic cancer cells. In words: Wound healing assay (cell migration). It counts as cell-based. To be noted: PANC1, 100 μM. As for the experimental part:
as §6

Assay [14] relates to HT29 colon cancer cells. In words: Wound healing assay (cell migration). To be noted: HT29, 100 μM. The format is cell-based, human. On the procedure:
as §6

The test system of assay [15] is SW480 colon cancer cells. Description: Wound healing assay (cell migration). To be noted: SW480, 100 μM. The format is cell-based, human. As for the experimental part: as §6
In assay [16] the test system is Thr-58-O-GlcNAcylated c-myc in PANC-1 cells. In words: Thr-58-O-GlcNAcylated c-myc expression in PANC-1 cells. It counts as cell-based. To be noted: PANC-1, after ketoconazole treatment.
Setting [17] is: MCF-7, 4 hr treatment, cell lysates, FIG. 6A.
Setting [18] is: MCF-7, 24 hr treatment, 2 mM, nuclear lysates, FIG. 5.
Where [19] appears, read: 2 mM, nuclear lysates, antibody Peptide #2-G, FIG. 6B.

Molecules are shown by their SMILES. “Also recorded” adds a separate entry of the source.

Turning to `CNc1ncnc2c1ncn2[C@@H]1O[C@H](COP(=O)(O)O)[C@@H](O)[C@H]1O` [N6-methyladenosine 5′-monophosphate], the O-GlcNAcylated c-myc levels result in assay [1] (setting [17]), in assay [1] (setting [18]) and in [2] was “failed to increase” each time. Further, the “Levels of O-GlcNAcylated p53” value in assay [3] is recorded as “increased”.
Turning to `CN(N=O)C(=O)N[C@H]1C(O)O[C@H](CO)[C@@H](O)[C@@H]1O` (mixture of isomers) [STZ, streptozotocin], the O-GlcNAcylated c-myc levels entry in assay [1] (setting [18]) is “failed to increase”.
Regarding `CC(=O)N1CCN(c2ccc(OCC3COC(Cn4ccnc4)(c4ccc(Cl)cc4Cl)O3)cc2)CC1` (stereo not shown) [ketoconazole], the O-GlcNAcylated c-myc level entry was “dramatically increased” in assay [1] (setting [19]) and “dramatically increased” in [1] (2 mM, second antibody Peptide #1-G, FIG. 6C). In [4], the unmodified c-myc protein entry was “no increase”. Moreover, in the assay with MCF-7 and MCF10A cells, the “increased cell death in MCF-7 cells higher than in MCF10A cells” value is 84%. Besides, the cell proliferation result in the assay with HT29 colon cancer cells [5] (HT29, 100 μM) was “inhibited”; in the assay with SW480 colon cancer cells [6] (SW480, 100 μM), “inhibited”. Also, the inhibition at 50 µM was 67.4% in the assay on HT29 colon cancer cells [5] (Homo sapiens, HT-29, HT29, 50 μM for 72 hr, MTT); 63.3% in the assay on SW480 colon cancer cells [6] (Homo sapiens, SW480, 50 μM for 72 hr, MTT); 51.3% in the assay on A549 lung cancer cells; 44.9% in the assay on H1437 lung cancer cells; 60.2% in [7]. Moreover, the “inhibition of cell proliferation” value in the assay on PANC1 cells is reported as “failed to inhibit; also recorded: no significant differences”. In addition, the “proliferation of MCF-7 breast cancer cells” value in assay [8] is listed as “inhibited”. The cell invasiveness entry in the assay on HT29 colon cancer cells [9] was “loss of cell invasiveness”; in the assay on SW480 colon cancer cells [10] it was “loss of cell invasiveness”; in assay [11] it was “partially inhibited”; in [11] (listed as Ketoconazole), “slight loss of cell invasiveness”. Also, the inhibition at 100 µM in the assay with HT29 colon cancer cells [9] (Homo sapiens, HT-29, read-out: inhibition of migration in cell invasion assay) was determined as 100%; in the assay with SW480 colon cancer cells [10] (Homo sapiens, read-out: inhibition of migration in cell invasion assay) it was 100%; in assay [12] (Homo sapiens, 24 and 48 hr, (36/46 × 100) and (43/55 × 100)), 78%. In addition, the “% cells migrated toward a scratched field” value in assay [12] (0 hr) is recorded as 0%; in assay [12] (24 hr), 11.6%; in [12] (24 hr, listed as Ketoconazole) it was 10%; in assay [12] (48 hr), 12%; in assay [13] (0 hr), 0%; in [13] (24 hr), 6%. The “% cells migrated toward a scratched field” value in assay [13] (48 hr) is given as 11%. The “inhibition of cell migration” value in assay [13] is given as “no significant differences”. Moreover, the “Percent of cells migrated toward a scratched field” value is listed as 0% in the assay on HT29 colon cancer cells [14] (0 hr), 8% with HT29 colon cancer cells [14] (24 hr), 0% with SW480 colon cancer cells [15] (0 hr) and 27% with SW480 colon cancer cells [15] (24 hr). The Thr-58-O-GlcNAcylated c-myc expression entry in assay [16] was “failed to increase”.
As for `O=C1CC2(CCCC2)CC(=O)N1CCCCN1CCN(c2ncccn2)CC1` [buspirone], in assay [1] (setting [19]), the O-GlcNAcylated c-myc level result is reported as “did not increase”.
For the compound `CC(=O)Nc1nnc(S(N)(=O)=O)s1` [acetazolamide], the O-GlcNAcylated c-myc levels result in assay [1] (setting [17]) and in assay [2] was “failed to increase” throughout. In addition, the “O-GlcNAcylated c-myc levels in nucleus” value in assay [1] (MCF-7, 24 hr, 2 mM, data not shown) is recorded as “did not increase”. The “Levels of O-GlcNAcylated p53” value in [3] was “increased”.

The record behind these values is patent US10317409B2, “Glycosylation site-specific antibodies and anti-cancer compounds” (Detroit R&D, Inc., priority 2013, dated 2019).
